A word on the IC50: it is the concentration that gives 50% inhibition.

The source of these data is publication PMC7827085 (Pharmaceutics, 2021).

Read-outs that look alike come from different tables or passages of the source. A value given as a limit tells only on which side of the number the result lay.

Data set [1] concerns the target T1, ABCC1/MRP1 (Homo sapiens, UniProt P33527).
Data set [2] addresses T2, ABCB1/MDR1/Pgp (Homo sapiens, UniProt P08183). The data set can be described thus: in vitro. To be noted: Estimated Transporter Inhibition IC50, ABCB1 vesicular assay, ATP-dependent NMQ uptake, HEK-293/ABCB1 inverted membrane vesicles, '-' = no inhibition.
Data set [3] concerns the target T2, ABCB1/MDR1/Pgp. Nature of the data set: in vitro. To be noted: human. How it is done: (§1) For the ABC transporter assays, we used both cell-based and membrane-based functional assays. […] The respective transport activities were assayed by measuring the cellular fluorescence of the respective transported substrates Phengreen (ABCG2) and Calcein (ABCB1 and ABCC1).
(§2) The cells were kept on ice until the flow cytometry measurements. All experiments were performed in triplicate and in at least three biological parallels.
(§3) The cells were kept on ice until the flow cytometry measurements. All experiments were performed in triplicate and in at least three biological parallels. […] The PhenGreen (PG) or Calcein signal was detected in the BL1 channel (emission filter: 530/30 nm). Analysis of the data was carried out by the Attune Nxt Cytometer Software v3.1.2 (Thermo Fischer Scientific, Waltham, MA, USA). The inhibition of transporter activity was calculated by comparing the fluorescence in the presence of the test compound to that in the presence of a specific inhibitor providing maximum inhibition. […] Half-maximum inhibition (IC50) values were calculated by using the Origin2019 software (9.6.5.169, OriginLab Corporation, Northampton, MA, USA). […] In these experiments, we measured Hoechst dye extrusion in HeLa cells stably expressing eGFP and the ABCG2 variants driven by the same promoter—the transgenic cells generated by the Sleeping Beauty transposon system. […] For details, see Zámbó et al.). […] The maximum inhibition was defined for each variant as the fluorescence difference of the samples incubated with and without Ko143, respectively. […] Data analysis was performed using the Attune Nxt Cytometer Software v3.1.2. Two samples per condition and three biological replicates were examined in each experiment.
ABCB1 is a high-affinity active efflux transporter of the viability dye Calcein-AM (CaAM). […] Here, we applied this widely used cellular assay (see https://www.solvobiotech.com/services/categories/dye-efflux-assays) to characterize drug interactions of the applied compounds in intact PLB-985 cells, expressing high levels of the ABCB1 protein.

Data set [4] concerns the target T3, ABCG2/BCRP (Homo sapiens, UniProt Q9UNQ0).
T3 sequence (Q9UNQ0 1-655): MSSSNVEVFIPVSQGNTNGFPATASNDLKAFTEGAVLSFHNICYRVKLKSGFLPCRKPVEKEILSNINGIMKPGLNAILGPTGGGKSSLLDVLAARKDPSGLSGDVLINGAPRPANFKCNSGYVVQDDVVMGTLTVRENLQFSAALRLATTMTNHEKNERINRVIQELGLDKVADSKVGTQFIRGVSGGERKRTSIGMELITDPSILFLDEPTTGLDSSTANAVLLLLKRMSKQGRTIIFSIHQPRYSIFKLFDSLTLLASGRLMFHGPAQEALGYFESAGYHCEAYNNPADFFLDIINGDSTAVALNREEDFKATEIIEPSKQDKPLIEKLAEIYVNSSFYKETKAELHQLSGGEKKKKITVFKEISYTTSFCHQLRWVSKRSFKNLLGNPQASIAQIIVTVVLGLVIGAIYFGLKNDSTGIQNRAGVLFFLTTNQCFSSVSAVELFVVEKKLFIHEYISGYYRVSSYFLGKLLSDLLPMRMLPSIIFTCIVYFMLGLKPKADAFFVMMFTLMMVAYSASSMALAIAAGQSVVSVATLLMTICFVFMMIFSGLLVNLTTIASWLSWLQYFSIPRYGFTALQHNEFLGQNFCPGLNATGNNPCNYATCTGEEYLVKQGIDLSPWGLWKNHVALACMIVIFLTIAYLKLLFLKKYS
The data set can be described thus: in vitro. Particulars: human. The protocol: These were employed at 37 °C for 10 min (ABCG2), 1 min (ABCB1), or 3 min (ABCC1), with or without 4 mM Mg-ATP, in a 50 μL final volume. The known reference inhibitors of the transporters (1 µM Ko143 for ABCG2, 1 µM Valspodar for ABCB1, and 200 µM Benzbromarone for ABCC1) served as controls. Each test compound was dissolved in DMSO and a 1 µL volume was added to the samples. After incubation, the samples were filtered and washed, and the substrates in the vesicles were dissolved in 10% SDS and transferred onto another plate. After the addition of a stabilizer, the fluorescence was measured in plate readers (Victor X3 and Enspire Perkin-Elmer, Waltham, MA, USA), while the activity of the radiolabeled substrate was measured by liquid scintillation counting (Perkin Elmer MicroBeta2 liquid scintillation counter, Perkin Elmer, Waltham, MA, USA). ABC transporter-related vesicular transport was calculated by subtracting uptake measured in the presence of Mg-AMP from the values measured in the presence of Mg-ATP.
The effects of the test compounds on ABCG2 activity were also measured in a vesicular transport assay by using inverted membrane vesicles prepared from HEK-293 cells expressing high levels of the ABCG2 transporter.

For data set [5], the target named is T3, ABCG2/BCRP. Nature of the data set: in vitro. Particulars: human. How it is done:
as §1, §3
Here, we used both PhenGreen-SK diacetate and Hst dye for these measurements. The PhenGreen (PG) assay is a recently patented method applied for ensuring an efficient ABCG2 transport measurement, as the non-fluorescent PhenGreen diacetate (PG-DA) is actively extruded by ABCG2 and the cellular fluorescence is correlated with ABCG2 transport activity. Therefore, we applied this assay to characterize the test drug interactions in intact PLB-985 cells expressing high levels of the ABCG2 protein. […] ABCG2 inhibition by the test compounds was estimated by their relative (%) inhibition compared to full inhibition by Ko143.
The source holds these as a separate data set.

The target of data set [6] is T1, ABCC1/MRP1. Nature of the data set: in vitro. Particulars: HL60/ABCC1 cells. How it is done: as §1, §2, §3
Therefore, we applied this assay to characterize the test drug interactions in intact HL60 cells expressing high levels of the ABCC1 protein.

The conditions of data set [7]: in patients; lopinavir may reach, ritonavir may peak; ref FDA label 021226s018lbl / EMA Kaletra EPAR scientific discussion; cited from earlier work.

T1 sequence (P33527 whole entry): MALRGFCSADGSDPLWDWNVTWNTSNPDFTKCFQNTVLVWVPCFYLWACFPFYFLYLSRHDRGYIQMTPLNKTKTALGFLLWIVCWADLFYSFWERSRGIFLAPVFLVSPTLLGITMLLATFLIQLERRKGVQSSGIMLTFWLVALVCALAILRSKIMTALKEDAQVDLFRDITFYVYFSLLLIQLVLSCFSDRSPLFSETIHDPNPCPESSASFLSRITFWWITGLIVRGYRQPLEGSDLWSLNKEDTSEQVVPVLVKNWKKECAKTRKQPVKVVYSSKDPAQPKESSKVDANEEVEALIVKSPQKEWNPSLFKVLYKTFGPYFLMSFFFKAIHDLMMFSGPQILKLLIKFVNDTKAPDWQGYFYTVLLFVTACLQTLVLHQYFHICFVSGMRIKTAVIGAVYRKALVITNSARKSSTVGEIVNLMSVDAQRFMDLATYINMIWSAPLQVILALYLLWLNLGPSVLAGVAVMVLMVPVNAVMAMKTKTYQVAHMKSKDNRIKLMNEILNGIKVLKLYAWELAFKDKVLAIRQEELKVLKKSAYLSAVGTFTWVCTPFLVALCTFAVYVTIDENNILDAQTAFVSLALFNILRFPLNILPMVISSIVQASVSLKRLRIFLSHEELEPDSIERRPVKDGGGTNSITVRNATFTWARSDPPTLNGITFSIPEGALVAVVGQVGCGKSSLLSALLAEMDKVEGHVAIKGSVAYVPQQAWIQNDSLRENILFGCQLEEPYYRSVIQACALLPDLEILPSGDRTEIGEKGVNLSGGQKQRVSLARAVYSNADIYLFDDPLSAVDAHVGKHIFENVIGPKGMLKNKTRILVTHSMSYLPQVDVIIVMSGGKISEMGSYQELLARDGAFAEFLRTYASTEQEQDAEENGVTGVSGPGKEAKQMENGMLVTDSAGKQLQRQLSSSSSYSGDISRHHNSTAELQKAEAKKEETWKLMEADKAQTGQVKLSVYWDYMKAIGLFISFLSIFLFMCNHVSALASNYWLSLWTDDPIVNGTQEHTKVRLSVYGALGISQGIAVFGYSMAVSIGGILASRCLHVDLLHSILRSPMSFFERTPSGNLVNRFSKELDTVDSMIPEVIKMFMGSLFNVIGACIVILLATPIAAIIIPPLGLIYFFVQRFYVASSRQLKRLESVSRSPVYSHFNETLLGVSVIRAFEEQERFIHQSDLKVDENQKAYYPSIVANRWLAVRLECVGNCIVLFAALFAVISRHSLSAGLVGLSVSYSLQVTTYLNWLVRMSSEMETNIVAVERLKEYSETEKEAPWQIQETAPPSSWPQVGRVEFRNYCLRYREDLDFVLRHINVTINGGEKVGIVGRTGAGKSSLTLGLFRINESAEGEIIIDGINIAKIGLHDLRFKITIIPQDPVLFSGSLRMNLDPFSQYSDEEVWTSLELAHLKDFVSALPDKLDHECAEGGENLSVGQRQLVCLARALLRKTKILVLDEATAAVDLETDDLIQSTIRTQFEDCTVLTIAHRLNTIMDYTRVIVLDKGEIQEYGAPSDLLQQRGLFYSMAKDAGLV
T2 sequence (P08183 whole entry): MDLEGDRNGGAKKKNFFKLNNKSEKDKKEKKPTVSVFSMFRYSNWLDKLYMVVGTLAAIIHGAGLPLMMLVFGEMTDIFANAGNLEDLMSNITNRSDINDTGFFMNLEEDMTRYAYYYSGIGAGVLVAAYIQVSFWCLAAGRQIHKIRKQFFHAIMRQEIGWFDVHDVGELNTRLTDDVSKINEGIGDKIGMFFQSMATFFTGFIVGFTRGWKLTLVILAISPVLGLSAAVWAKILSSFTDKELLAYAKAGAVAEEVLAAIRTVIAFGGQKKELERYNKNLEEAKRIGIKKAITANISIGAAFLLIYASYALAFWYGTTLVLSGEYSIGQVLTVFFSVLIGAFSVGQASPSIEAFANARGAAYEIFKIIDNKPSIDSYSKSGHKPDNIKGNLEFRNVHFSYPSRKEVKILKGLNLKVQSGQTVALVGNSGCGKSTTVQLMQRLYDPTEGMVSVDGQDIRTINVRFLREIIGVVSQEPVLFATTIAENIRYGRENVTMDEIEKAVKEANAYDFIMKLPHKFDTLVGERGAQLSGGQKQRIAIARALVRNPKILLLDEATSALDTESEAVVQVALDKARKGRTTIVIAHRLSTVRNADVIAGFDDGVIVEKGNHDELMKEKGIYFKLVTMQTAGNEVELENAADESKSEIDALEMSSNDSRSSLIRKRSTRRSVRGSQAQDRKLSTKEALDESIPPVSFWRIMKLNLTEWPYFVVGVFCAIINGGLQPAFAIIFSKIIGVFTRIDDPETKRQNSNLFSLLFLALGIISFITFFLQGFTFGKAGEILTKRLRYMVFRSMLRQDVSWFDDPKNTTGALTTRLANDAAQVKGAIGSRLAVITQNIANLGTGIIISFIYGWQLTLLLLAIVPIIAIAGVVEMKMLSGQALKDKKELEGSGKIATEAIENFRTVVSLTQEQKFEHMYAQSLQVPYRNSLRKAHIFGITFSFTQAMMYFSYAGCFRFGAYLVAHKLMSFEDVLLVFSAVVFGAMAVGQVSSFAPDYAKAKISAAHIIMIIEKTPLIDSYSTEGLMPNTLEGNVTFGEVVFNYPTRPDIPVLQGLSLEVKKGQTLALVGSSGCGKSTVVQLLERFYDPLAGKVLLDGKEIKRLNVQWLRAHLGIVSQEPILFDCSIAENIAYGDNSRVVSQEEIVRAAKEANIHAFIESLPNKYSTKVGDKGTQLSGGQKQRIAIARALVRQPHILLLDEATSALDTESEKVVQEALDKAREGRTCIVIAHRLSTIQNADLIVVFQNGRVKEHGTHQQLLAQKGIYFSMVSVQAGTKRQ

For the molecule `CCN(CC)CCCC(C)Nc1ccnc2cc(Cl)ccc12` (centres unmarked) [chloroquine], the “Effect on ABCC1 vesicular ETGB transport (in words)” value at ABCC1/MRP1 [1] was “practically no effect”. The IC50 on ABCB1/MDR1/Pgp [2] was over 50 µM. For the same molecule, the IC50 at 40 min against ABCB1/MDR1/Pgp [3] and against ABCG2/BCRP [5] was over 50 µM in each case. For the same molecule, at ABCG2/BCRP [4], the IC50 at 10 min was over 50 µM. Moreover, on ABCC1/MRP1 [6], the “Effect on ABCC1-dependent CaAM extrusion (in words)” value is reported as “practically no effect”.

On to `CC(C)c1nc(CN(C)C(=O)N[C@H](C(=O)N[C@@H](Cc2ccccc2)C[C@H](O)[C@H](Cc2ccccc2)NC(=O)OCc2cncs2)C(C)C)cs1` [ritonavir], for which the “Effect on ABCC1 vesicular ETGB transport (in words)” value at ABCC1/MRP1 [1] (Sf9/ABCC1 membrane vesicles) is reported as “practically no effect”. For the same molecule, in data set [7], the “Plasma concentration in patients” value is listed as “about 1 μM”.
